Source: ChEMBL document CHEMBL4725279, “Design and synthesis of peptide-based chimeric molecules to induce degradation of the estrogen and androgen receptors” (Bioorg Med Chem, 2020)

What was measured:
Format in all cases: cell-based
[1] = target: T1, IAP/Androgen receptor (Homo sapiens) (UniProt P10275+P98170+Q13490); assay: SNIPER activity at IAP/AR in human MCF7 cells assessed as induction of AR protein degradation incubated for 8 to 24 hrs by western blot analysis; settings: time hrs 8-24
[2] = target: T2, IAP-Estrogen receptor (Homo sapiens) (UniProt P03372+P98170+Q13490); assay: SNIPER activity at IAP/ERalpha in human MCF7 cells assessed as induction of ERalpha protein degradation incubated for 8 to 24 hrs by western blot analysis; settings: time hrs 8-24
T2 sequence (P03372 whole entry, looked up): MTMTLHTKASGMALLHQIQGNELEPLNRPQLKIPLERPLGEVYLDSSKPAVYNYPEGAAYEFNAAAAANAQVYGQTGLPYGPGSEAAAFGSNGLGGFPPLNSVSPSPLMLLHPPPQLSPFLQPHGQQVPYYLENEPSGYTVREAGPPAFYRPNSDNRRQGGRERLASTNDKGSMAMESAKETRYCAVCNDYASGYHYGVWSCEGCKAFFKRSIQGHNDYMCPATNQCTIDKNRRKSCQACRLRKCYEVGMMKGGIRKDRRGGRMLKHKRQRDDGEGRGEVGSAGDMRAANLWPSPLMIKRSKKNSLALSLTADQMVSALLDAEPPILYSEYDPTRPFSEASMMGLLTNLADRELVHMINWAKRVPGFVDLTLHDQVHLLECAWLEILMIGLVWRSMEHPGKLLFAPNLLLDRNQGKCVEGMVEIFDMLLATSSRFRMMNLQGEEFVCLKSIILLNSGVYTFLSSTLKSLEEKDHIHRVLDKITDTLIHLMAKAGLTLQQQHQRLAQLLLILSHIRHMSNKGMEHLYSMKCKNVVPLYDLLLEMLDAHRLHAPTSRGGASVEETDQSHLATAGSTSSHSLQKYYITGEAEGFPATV
T2 sequence (P98170 whole entry, looked up): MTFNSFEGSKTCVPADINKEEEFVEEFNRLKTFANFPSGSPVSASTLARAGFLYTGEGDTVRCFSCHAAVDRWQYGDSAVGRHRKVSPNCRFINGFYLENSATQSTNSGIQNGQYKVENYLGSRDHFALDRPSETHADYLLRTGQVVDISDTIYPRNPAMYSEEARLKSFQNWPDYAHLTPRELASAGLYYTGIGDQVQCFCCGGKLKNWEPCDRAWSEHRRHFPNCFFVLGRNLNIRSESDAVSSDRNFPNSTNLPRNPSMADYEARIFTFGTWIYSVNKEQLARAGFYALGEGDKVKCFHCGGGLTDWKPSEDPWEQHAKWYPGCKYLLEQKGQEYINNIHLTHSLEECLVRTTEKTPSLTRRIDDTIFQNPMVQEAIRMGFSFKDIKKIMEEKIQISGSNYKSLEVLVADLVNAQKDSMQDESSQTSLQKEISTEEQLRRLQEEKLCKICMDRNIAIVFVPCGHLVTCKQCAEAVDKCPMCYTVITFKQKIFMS
T2 sequence (Q13490 whole entry, looked up): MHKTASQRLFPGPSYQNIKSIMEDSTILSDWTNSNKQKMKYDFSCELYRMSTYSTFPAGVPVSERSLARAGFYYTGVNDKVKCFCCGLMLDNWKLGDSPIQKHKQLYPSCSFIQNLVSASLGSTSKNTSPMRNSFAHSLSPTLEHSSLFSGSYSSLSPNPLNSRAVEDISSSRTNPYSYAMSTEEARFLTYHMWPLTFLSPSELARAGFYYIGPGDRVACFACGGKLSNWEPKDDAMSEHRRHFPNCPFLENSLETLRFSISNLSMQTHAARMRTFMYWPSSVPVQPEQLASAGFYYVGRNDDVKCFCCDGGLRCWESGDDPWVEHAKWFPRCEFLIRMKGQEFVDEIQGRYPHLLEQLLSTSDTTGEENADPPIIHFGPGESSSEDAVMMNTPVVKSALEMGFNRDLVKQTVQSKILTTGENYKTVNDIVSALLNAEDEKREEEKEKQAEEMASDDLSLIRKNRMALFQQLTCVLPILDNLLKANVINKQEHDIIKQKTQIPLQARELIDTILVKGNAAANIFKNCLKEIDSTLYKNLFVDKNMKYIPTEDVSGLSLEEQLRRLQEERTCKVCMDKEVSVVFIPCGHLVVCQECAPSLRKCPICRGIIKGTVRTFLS

[3] = target: T1, IAP/Androgen receptor (Homo sapiens); assay: SNIPER activity at IAP/AR in human MCF7 cells assessed as induction of AR protein degradation by measuring AR protein level at 5 uM incubated for 8 hrs by western blot analysis relative to lamin B
[4] = target: T1, IAP/Androgen receptor (Homo sapiens); assay: SNIPER activity at IAP/AR in human MCF7 cells assessed as induction of AR protein degradation by measuring AR protein level at 10 uM incubated for 8 hrs by western blot analysis relative to lamin B
[5] = target: T1, IAP/Androgen receptor (Homo sapiens); assay: SNIPER activity at IAP/AR in human MCF7 cells assessed as induction of AR protein degradation by measuring AR protein level at 20 uM incubated for 8 hrs by western blot analysis relative to lamin B
[6] = target: T2, IAP-Estrogen receptor (Homo sapiens); assay: SNIPER activity at IAP/ERalpha in human MCF7 cells assessed as induction of ERalpha protein degradation by measuring ERalpha protein level at 5 uM incubated for 8 hrs by western blot analysis relative to lamin B
[7] = target: T2, IAP-Estrogen receptor (Homo sapiens); assay: SNIPER activity at IAP/ERalpha in human MCF7 cells assessed as induction of ERalpha protein degradation by measuring ERalpha protein level at 10 uM incubated for 8 hrs by western blot analysis relative to lamin B
[8] = target: T2, IAP-Estrogen receptor (Homo sapiens); assay: SNIPER activity at IAP/ERalpha in human MCF7 cells assessed as induction of ERalpha protein degradation by measuring ERalpha protein level at 20 uM incubated for 8 hrs by western blot analysis relative to lamin B
[9] = target: T1, IAP/Androgen receptor (Homo sapiens); assay: SNIPER activity at IAP/AR in human MCF7 cells assessed as induction of AR protein degradation by measuring AR protein level at 20 uM incubated for 24 hrs by western blot analysis relative to lamin B
[10] = target: T1, IAP/Androgen receptor (Homo sapiens); assay: SNIPER activity at IAP/AR in human MCF7 cells assessed as induction of AR protein degradation by measuring AR protein level at 10 uM incubated for 24 hrs by western blot analysis relative to lamin B
[11] = target: T1, IAP/Androgen receptor (Homo sapiens); assay: SNIPER activity at IAP/AR in human MCF7 cells assessed as induction of AR protein degradation by measuring AR protein level at 5 uM incubated for 24 hrs by western blot analysis relative to lamin B
[12] = target: T2, IAP-Estrogen receptor (Homo sapiens); assay: SNIPER activity at IAP/ERalpha in human MCF7 cells assessed as induction of ERalpha protein degradation by measuring ERalpha protein level at 5 uM incubated for 24 hrs by western blot analysis relative to lamin B
[13] = target: T2, IAP-Estrogen receptor (Homo sapiens); assay: SNIPER activity at IAP/ERalpha in human MCF7 cells assessed as induction of ERalpha protein degradation by measuring ERalpha protein level at 10 uM incubated for 24 hrs by western blot analysis relative to lamin B
[14] = target: T2, IAP-Estrogen receptor (Homo sapiens); assay: SNIPER activity at IAP/ERalpha in human MCF7 cells assessed as induction of ERalpha protein degradation by measuring ERalpha protein level at 20 uM incubated for 24 hrs by western blot analysis relative to lamin B
[15] = target: T3, Baculoviral IAP repeat-containing protein 2/E3 ubiquitin-protein ligase XIAP/Aryl hydrocarbon receptor (Homo sapiens, UniProt P35869+P98170+Q13490); assay: SNIPER activity at IAP/AhR in human MCF7 cells assessed as induction of AhR protein degradation by measuring AhR protein level at 5 uM incubated for 8 hrs by western blot analysis relative to lamin B; settings: mcf7, 8 h
T3 sequence (P35869 whole entry): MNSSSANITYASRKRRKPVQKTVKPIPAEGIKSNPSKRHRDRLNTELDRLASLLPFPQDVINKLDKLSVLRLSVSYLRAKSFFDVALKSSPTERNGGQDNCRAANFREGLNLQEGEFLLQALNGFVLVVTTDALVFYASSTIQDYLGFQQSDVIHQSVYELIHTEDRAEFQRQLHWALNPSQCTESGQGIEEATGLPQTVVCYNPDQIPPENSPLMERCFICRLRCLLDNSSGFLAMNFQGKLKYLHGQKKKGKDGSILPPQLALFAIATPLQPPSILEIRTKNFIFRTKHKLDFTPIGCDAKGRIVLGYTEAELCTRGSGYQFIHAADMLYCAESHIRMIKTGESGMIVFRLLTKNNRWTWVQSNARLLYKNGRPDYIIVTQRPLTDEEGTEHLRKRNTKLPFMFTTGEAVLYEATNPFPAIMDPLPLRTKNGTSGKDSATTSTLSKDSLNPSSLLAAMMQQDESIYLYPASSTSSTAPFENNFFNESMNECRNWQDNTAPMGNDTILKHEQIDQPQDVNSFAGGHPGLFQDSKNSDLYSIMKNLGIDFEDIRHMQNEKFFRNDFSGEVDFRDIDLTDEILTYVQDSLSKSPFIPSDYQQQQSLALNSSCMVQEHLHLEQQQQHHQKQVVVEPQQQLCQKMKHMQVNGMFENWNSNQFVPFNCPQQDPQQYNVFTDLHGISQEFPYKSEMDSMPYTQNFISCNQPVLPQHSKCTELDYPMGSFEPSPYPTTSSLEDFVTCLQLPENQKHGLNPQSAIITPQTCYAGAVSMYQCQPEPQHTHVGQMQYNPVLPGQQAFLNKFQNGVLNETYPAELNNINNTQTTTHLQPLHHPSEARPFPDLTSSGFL
T3 sequence (P98170 whole entry): as the sequence (P98170 whole entry, looked up) above
T3 sequence (Q13490 whole entry): as the sequence (Q13490 whole entry, looked up) above

[16] = target: T3, Baculoviral IAP repeat-containing protein 2/E3 ubiquitin-protein ligase XIAP/Aryl hydrocarbon receptor; assay: SNIPER activity at IAP/AhR in human MCF7 cells assessed as induction of AhR protein degradation by measuring AhR protein level at 10 uM incubated for 8 hrs by western blot analysis relative to lamin B; settings: mcf7, 8 h
[17] = target: T3, Baculoviral IAP repeat-containing protein 2/E3 ubiquitin-protein ligase XIAP/Aryl hydrocarbon receptor; assay: SNIPER activity at IAP/AhR in human MCF7 cells assessed as induction of AhR protein degradation by measuring AhR protein level at 20 uM incubated for 8 hrs by western blot analysis relative to lamin B; settings: mcf7, 8 h
[18] = target: T3, Baculoviral IAP repeat-containing protein 2/E3 ubiquitin-protein ligase XIAP/Aryl hydrocarbon receptor; assay: SNIPER activity at IAP/AhR in human MCF7 cells assessed as induction of AhR protein degradation by measuring AhR protein level at 5 uM incubated for 24 hrs by western blot analysis relative to lamin B; settings: mcf7, 24 h
[19] = target: T3, Baculoviral IAP repeat-containing protein 2/E3 ubiquitin-protein ligase XIAP/Aryl hydrocarbon receptor; assay: SNIPER activity at IAP/AhR in human MCF7 cells assessed as induction of AhR protein degradation by measuring AhR protein level at 10 uM incubated for 24 hrs by western blot analysis relative to lamin B; settings: mcf7, 24 h
[20] = target: T3, Baculoviral IAP repeat-containing protein 2/E3 ubiquitin-protein ligase XIAP/Aryl hydrocarbon receptor; assay: SNIPER activity at IAP/AhR in human MCF7 cells assessed as induction of AhR protein degradation by measuring AhR protein level at 20 uM incubated for 24 hrs by western blot analysis relative to lamin B; settings: mcf7, 24 h
[21] = target: T1, IAP/Androgen receptor (Homo sapiens); assay: SNIPER activity at IAP/AR in human MCF7 cells assessed as induction of AR protein degradation by measuring AR protein level at 20 uM incubated for 8 hrs in presence of proteasome inhibitor, MG132 by western blot analysis relative to lamin B
[22] = target: T1, IAP/Androgen receptor (Homo sapiens); assay: SNIPER activity at IAP/AR in human MCF7 cells assessed as induction of AR protein degradation by measuring AR protein level at 20 uM incubated for 8 hrs in presence of ubiquitin activating inhibitor MLN7243 by western blot analysis relative to lamin B
[23] = target: T2, IAP-Estrogen receptor (Homo sapiens); assay: SNIPER activity at IAP/ERalpha in human MCF7 cells assessed as induction of ERalpha protein degradation by measuring ERalpha protein level at 20 uM incubated for 8 hrs in presence of proteasome inhibitor, MG132 by western blot analysis relative to lamin B
[24] = target: T2, IAP-Estrogen receptor (Homo sapiens); assay: SNIPER activity at IAP/ERalpha in human MCF7 cells assessed as induction of ERalpha protein degradation by measuring ERalpha protein level at 20 uM incubated for 8 hrs in presence of ubiquitin activating inhibitor MLN7243 by western blot analysis relative to lamin B
[25] = target: T3, Baculoviral IAP repeat-containing protein 2/E3 ubiquitin-protein ligase XIAP/Aryl hydrocarbon receptor; assay: SNIPER activity at IAP/AhR in human MCF7 cells assessed as induction of AhR protein degradation by measuring AhR protein level at 20 uM incubated for 8 hrs in presence of proteasome inhibitor, MG132 by western blot analysis relative to lamin B; settings: mcf7, 8 h
[26] = target: T3, Baculoviral IAP repeat-containing protein 2/E3 ubiquitin-protein ligase XIAP/Aryl hydrocarbon receptor; assay: SNIPER activity at IAP/AhR in human MCF7 cells assessed as induction of AhR protein degradation by measuring AhR protein level at 20 uM incubated for 8 hrs in presence of ubiquitin activating inhibitor MLN7243 by western blot analysis relative to lamin B; settings: mcf7, 8 h
[27] = target: T1, IAP/Androgen receptor (Homo sapiens); assay: SNIPER activity at IAP/AR in cIAP1 siRNA-transfected human MCF7 cells assessed as induction of AR protein degradation by measuring AR protein level at 20 uM incubated for 8 hrs by western blot analysis relative to lamin B
[28] = target: T1, IAP/Androgen receptor (Homo sapiens); assay: SNIPER activity at IAP/AR in XIAP siRNA-transfected human MCF7 cells assessed as induction of AR protein degradation by measuring AR protein level at 20 uM incubated for 8 hrs by western blot analysis relative to lamin B
[29] = target: T1, IAP/Androgen receptor (Homo sapiens); assay: SNIPER activity at IAP/AR in XIAP/cIAP1 siRNA-transfected human MCF7 cells assessed as induction of AR protein degradation by measuring AR protein level at 20 uM incubated for 8 hrs by western blot analysis relative to lamin B
[30] = target: T2, IAP-Estrogen receptor (Homo sapiens); assay: SNIPER activity at IAP/ERalpha in cIAP1 siRNA-transfected human MCF7 cells assessed as induction of ERalpha protein degradation by measuring ERalpha protein level at 20 uM incubated for 8 hrs by western blot analysis relative to lamin B
[31] = target: T2, IAP-Estrogen receptor (Homo sapiens); assay: SNIPER activity at IAP/ERalpha in XIAP siRNA-transfected human MCF7 cells assessed as induction of ERalpha protein degradation by measuring ERalpha protein level at 20 uM incubated for 8 hrs by western blot analysis relative to lamin B
[32] = target: T2, IAP-Estrogen receptor (Homo sapiens); assay: SNIPER activity at IAP/ERalpha in XIAP/cIAP1 siRNA-transfected human MCF7 cells assessed as induction of ERalpha protein degradation by measuring ERalpha protein level at 20 uM incubated for 8 hrs by western blot analysis relative to lamin B

Q: What does the source list for `CC[C@H](C)[C@@H]1NC(=O)[C@H](NC(=O)[C@@H](N)CCCCNC(=O)COCCOCCNC(=O)COCCOCCNC(=O)[C@@H](NC(=O)[C@@H]2CCCN2C(=O)[C@@H](NC(=O)[C@H](C)NC)C2CCCCC2)C(c2ccccc2)c2ccccc2)CSSC[C@@H](C(=O)N[C@@H](CCCNC(=N)N)C(=O)N[C@@H](CC(C)(C)C)C(=O)N[C@@H](CC(C)C)C(=O)N[C@@H](CCC(N)=O)C(=O)NCC(=O)NCC(=O)NCC(=O)N[C@@H](CCCNC(=N)N)C(=O)N[C@@H](CCCNC(=N)N)C(=O)N[C@@H](CCCNC(=N)N)C(=O)N[C@@H](CCCNC(=N)N)C(=O)N[C@@H](CCCNC(=N)N)C(=O)N[C@@H](CCCNC(=N)N)C(=O)N[C@@H](CCCNC(=N)N)C(N)=O)NC(=O)[C@H](CC(C)C)NC1=O`?
A: Activity [1]: Dose-dependent effect; Activity [2]: Dose-dependent effect; Activity [3]: 80%; Activity [4]: 56%; Activity [5]: 35%; Activity [6]: 84%; Activity [7]: 66%; Activity [8]: 48%; Activity [9]: 57%; Activity [10]: 152%; Activity [11]: 97%; Activity [12]: 79%; Activity [13]: 75%; Activity [14]: 34%; Activity [15]: 119%; Activity [16]: 129%; Activity [17]: 82%; Activity [18]: 97%; Activity [19]: 189%; Activity [20]: 125%; Activity [21]: 90%; Activity [22]: 110%; Activity [23]: 88%; Activity [24]: 119%; Activity [25]: 91%; Activity [26]: 107%

Q: Which results are given for `CC[C@H](C)[C@@H]1NC(=O)[C@H](NC(=O)[C@@H](N)CCCCNC(=O)COCCOCCNC(=O)COCCOCCOc2cccc(C(=O)c3csc([C@@H]4CCCN4C(=O)[C@@H](NC(=O)[C@H](C)NC)C4CCCCC4)n3)c2)CSSC[C@@H](C(=O)N[C@@H](CCCNC(=N)N)C(=O)N[C@@H](CC(C)(C)C)C(=O)N[C@@H](CC(C)C)C(=O)N[C@@H](CCC(N)=O)C(=O)NCC(=O)NCC(=O)NCC(=O)N[C@@H](CCCNC(=N)N)C(=O)N[C@@H](CCCNC(=N)N)C(=O)N[C@@H](CCCNC(=N)N)C(=O)N[C@@H](CCCNC(=N)N)C(=O)N[C@@H](CCCNC(=N)N)C(=O)N[C@@H](CCCNC(=N)N)C(=O)N[C@@H](CCCNC(=N)N)C(N)=O)NC(=O)[C@H](CC(C)C)NC1=O`?
A: Activity [1]: Dose-dependent effect; Activity [2]: Dose-dependent effect; Activity [3]: 81%; Activity [4]: 63%; Activity [5]: 36%; Activity [6]: 84%; Activity [7]: 68%; Activity [8]: 46%; Activity [9]: 59%; Activity [10]: 137%; Activity [11]: 99%; Activity [12]: 81%; Activity [13]: 76%; Activity [14]: 35%; Activity [15]: 111%; Activity [16]: 128%; Activity [17]: 80%; Activity [18]: 100%; Activity [19]: 165%; Activity [20]: 103%; Activity [21]: 95%; Activity [22]: 117%; Activity [23]: 94%; Activity [24]: 122%; Activity [25]: 90%; Activity [26]: 110%; Activity [27]: 78%; Activity [28]: 57%; Activity [29]: 59%; Activity [30]: 50%; Activity [31]: 62%; Activity [32]: 55%
